# Assays:
# [1] = system: BV2 cells; experiment: Transcription of NF-κB protein (p65, p50) into nucleus after LPS (Western blot); assay type: cell-based; settings: 3 h pretreatment (Table 3 amounts), LPS 1 μg/ml 1 h
# Procedure, shortened: (§1)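 Cells (5×10^5/well) cultured in DMEM with 10% FBS at 37° C, 5% CO2, pretreated with compound, then stimulated with 1 μg/ml LPS for 1 hour. Nuclear levels of p65 and p50 measured by Western blot.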
# [2] = system: RAW264.7 cells; experiment: as above; assay type: cell-based; settings: 3 h pretreatment (Table 3 amounts), LPS 1 μg/ml 1 h
# Procedure, shortened: as §1
# [3] = system: RAW264.7 cells; experiment: NO and PGE2 production after LPS; assay type: cell-based; settings: 3 h pretreatment (Table 3 amounts), LPS 1 μg/ml 24 h
# Procedure, shortened: (§2)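 RAW264.7 or BV2 cells (5×10^5 cells/well) in DMEM with 10% FBS were pretreated with compound, then stimulated with 1 μg/ml LPS for 24 h. iNOS and COX-2 expression by Western blot; NO and PGE2 production measured. Compound toxicity checked by MTT.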
# [4] = system: BV2 cells; experiment: NO and PGE2 production after LPS; assay type: cell-based; settings: 3 h pretreatment (Table 3 amounts), LPS 1 μg/ml 24 h
# Procedure, shortened: as §2
# [5] = molecular target: T1, rePON1 (PON1, paraoxonase 1) (Homo sapiens, UniProt P27169); experiment: Prevention of inhibition of PON1 activity by oxidized linolenic acid (TBBL substrate); assay type: biochemical; settings: 30 μM compound with rePON1 30 min, then oxidized linolenic acid 2 h; TBBL substrate; normal control 100, negative control 73.64
# T1 construct: purchased Thermo Corp. RP-75678
# Procedure, shortened: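 Recombinant PON1 preincubated 30 min at room temperature with compound (30 μM) in 50 mM Tris-HCl/1 mM CaCl2, then exposed to oxidized linolenic acid for 2 h. Activity read with TBBL and DTNB at 420 nm, 37 °C, every 2 min for 1 h, expressed relative to uninhibited PON1.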
# [6] = system: RAW264.7 cells; experiment: iNOS and COX-2 expression after LPS (Western blot); assay type: cell-based; settings: 3 h pretreatment (Table 3 amounts), LPS 1 μg/ml 24 h
# Procedure, shortened: as §2
# [7] = system: BV2 cells; experiment: iNOS and COX-2 expression after LPS (Western blot); assay type: cell-based; settings: 3 h pretreatment (Table 3 amounts), LPS 1 μg/ml 24 h
# Procedure, shortened: as §2
# [8] = system: RAW264.7 cells; experiment: IL-1β, IL-6 and TNF-α mRNA expression after LPS (RT-PCR); assay type: cell-based; settings: 3 h pretreatment (Table 3 amounts), LPS 1 μg/ml 6 h
# Procedure, shortened: (§3)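 Cells pretreated with test compounds (cytotoxicity checked by MTT), then stimulated with 1 μg/ml LPS for 6 h. IL-1β, IL-6 and TNF-α mRNA levels measured by RT-PCR.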
# [9] = system: BV2 cells; experiment: as above; assay type: cell-based; settings: 3 h pretreatment (Table 3 amounts), LPS 1 μg/ml 6 h
# Procedure, shortened: as §3
# T1 sequence (P27169 whole entry): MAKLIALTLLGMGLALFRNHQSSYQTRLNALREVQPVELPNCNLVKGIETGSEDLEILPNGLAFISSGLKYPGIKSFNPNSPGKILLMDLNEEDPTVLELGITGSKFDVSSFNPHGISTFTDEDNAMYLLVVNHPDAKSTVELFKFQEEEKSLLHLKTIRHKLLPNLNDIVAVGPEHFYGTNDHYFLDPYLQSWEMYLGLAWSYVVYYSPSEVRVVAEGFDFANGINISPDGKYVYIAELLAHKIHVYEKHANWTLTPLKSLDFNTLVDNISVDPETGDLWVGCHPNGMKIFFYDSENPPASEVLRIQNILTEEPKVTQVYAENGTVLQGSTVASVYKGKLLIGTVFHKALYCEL
smiles,measurement,setting,value
"CC1(C)C=Cc2c(ccc3c2OC[C@@H](c2ccc(O)cc2O)C3)O1 [Glabridin, glabridin, reference compound]","level of transcription of NF-κB protein into the nucleus, p50",[1],did not decrease
same,"level of transcription of NF-κB protein into the nucleus, p65",[1],did not decrease
same,"level of transcription of NF-κB protein into the nucleus, p50",[2],did not decrease
same,"level of transcription of NF-κB protein into the nucleus, p65",[2],did not decrease
same,production of NO,[3],did not decrease
same,production of PGE2,[3],did not decrease
same,production of NO,[4],did not decrease
same,production of PGE2,[4],did not decrease
same,activity at 30 µM,[5],82.8%
same,expression level of COX-2,[6],did not decrease
same,expression level of iNOS,[6],did not decrease
same,expression level of COX-2,[7],did not decrease
same,expression level of iNOS,[7],did not decrease
same,mRNA expression level of IL-1β,[8],did not decrease
same,mRNA expression level of IL-6,[8],did not decrease
same,mRNA expression level of TNF-α,[8],did not decrease
same,mRNA expression level of IL-1β,[9],did not decrease
same,mRNA expression level of IL-6,[9],did not decrease
same,mRNA expression level of TNF-α,[9],did not decrease

# — patent US20220257557A1, “PHARMACEUTICAL COMPOSITION FOR PREVENTING OR TREATING NEUROLOGICAL DISEASES” (GLACEUM INC., priority 2019, published 2022)
